US9382228B2 (priority 2013, dated 2016)
pIC50: −log10 of the molar value.

What was measured:
osteoclast precursors = assay: cells; assay type: cell-based; details: read-out: Osteoclast assay
[1] = target: T1, unphosphorylated c-FMS kinase (uFMS, Seq. ID no. 1) (Homo sapiens, UniProt P07333); assay: biochemical; details: uFMS, enzymatic assay, ATP 500 μM
T1 sequence (P07333 538-972): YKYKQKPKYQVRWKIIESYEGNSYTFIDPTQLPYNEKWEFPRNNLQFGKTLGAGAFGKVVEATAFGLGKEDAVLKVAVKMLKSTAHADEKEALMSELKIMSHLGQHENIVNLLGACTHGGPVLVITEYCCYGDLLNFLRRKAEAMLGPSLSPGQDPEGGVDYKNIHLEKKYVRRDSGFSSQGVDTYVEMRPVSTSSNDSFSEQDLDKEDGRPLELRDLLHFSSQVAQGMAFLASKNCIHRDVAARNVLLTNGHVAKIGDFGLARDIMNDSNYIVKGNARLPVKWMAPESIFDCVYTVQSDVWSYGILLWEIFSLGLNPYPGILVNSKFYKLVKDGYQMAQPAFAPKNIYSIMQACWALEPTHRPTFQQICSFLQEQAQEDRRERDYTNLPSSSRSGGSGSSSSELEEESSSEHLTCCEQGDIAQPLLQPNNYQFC
Experimental: In this assay, the oxidation of NADH (thus the decrease at A340 nm) was continuously monitored spectrophometrically. The reaction mixture (100 μL) contained FMS (purchased from Millipore) (10 nM), polyE4Y (1 mg/mL), MgCl2 (10 mM), pyruvate kinase (4 units), lactate dehydrogenase (0.7 units), phosphoenol pyruvate (1 mM), NADH (0.28 mM) and ATP (500 μM) in 90 mM Tris buffer containing 0.2% octyl-glucoside and 1% DMSO, pH 7.5. The inhibition reaction was started by mixing serial diluted test compound with the above reaction mixture. The absorption at 340 nm was monitored continuously for 4 hours at 30° C. on Synergy 2 plate reader. The reaction rate was calculated using the 3 to 4 h time frame. Percent inhibition was obtained by comparison of reaction rate with that of a control (i.e. in the absence of test compound). IC50 values were calculated from a series of percent inhibition values determined at a range of inhibitor concentrations using software routines as implemented in the GraphPad Prism software package.

[2] = test system: phospho-FMS in THP-1 cells; assay: cells; details: Homo sapiens, THP-1, read-out: pFMS inhibition in THP-1 cells
Experimental: In a separate 96 well black clear bottom plate, one hundred and fifty thousand THP-1 cells were added per well in 100 μL in assay medium. Fifty microliters of diluted compound was then added to the cells. […] Lysates were prepared and used to perform the phospho-FMS ELISA as described by the manufacturer (catalog #DYC3268, R & D Systems, Minneapolis, Minn.). GraphPad Prism was used to calculate IC50 values obtained from data generated from the ELISA assay.

M-NFS-60 cells = assay: cells; details: 67 h, read-out: M-NFS-60 cell proliferation
Experimental: M-NFS-6 Cell Proliferation Assay
A serial dilution of test compound was dispensed into a 384-well black clear bottom plate (Corning, Corning, N.Y.). Two thousand five hundred cells were added per well in 50 μL complete growth medium. […] IC50 values were calculated from a series of percent inhibition values determined at a range of inhibitor concentrations using software routines as implemented in the GraphPad Prism software package.

[3] = target: unphosphorylated c-KIT kinase (uKIT, Seq. ID no. 2) (Homo sapiens, UniProt P10721); assay: biochemical; details: for pIC50: uKIT, enzymatic assay, ATP 2000 μM
unphosphorylated c-KIT kinase (uKIT, Seq. ID no. 2), sequence (P10721 with tags, fused parts or gaps): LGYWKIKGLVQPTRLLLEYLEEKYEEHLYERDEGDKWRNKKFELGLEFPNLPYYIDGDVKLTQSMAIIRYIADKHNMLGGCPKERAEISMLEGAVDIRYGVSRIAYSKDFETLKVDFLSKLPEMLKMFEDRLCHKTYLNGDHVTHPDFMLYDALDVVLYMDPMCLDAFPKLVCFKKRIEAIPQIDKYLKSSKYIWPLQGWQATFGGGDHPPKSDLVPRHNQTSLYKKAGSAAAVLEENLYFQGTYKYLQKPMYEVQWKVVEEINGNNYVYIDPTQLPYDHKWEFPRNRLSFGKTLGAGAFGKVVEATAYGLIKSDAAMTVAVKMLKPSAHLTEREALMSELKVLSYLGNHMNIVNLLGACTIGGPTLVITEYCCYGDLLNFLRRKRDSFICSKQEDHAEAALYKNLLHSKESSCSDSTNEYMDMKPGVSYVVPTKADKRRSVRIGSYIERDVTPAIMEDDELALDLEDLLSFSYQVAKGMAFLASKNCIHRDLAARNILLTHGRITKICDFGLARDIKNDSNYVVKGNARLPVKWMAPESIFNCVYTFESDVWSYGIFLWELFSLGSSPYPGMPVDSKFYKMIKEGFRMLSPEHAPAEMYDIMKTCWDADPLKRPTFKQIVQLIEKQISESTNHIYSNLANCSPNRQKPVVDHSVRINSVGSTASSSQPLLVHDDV
Experimental: uKit kinase (Seq. ID No. 2) Assay
In this assay, the oxidation of NADH (thus the decrease at A340 nm) was continuously monitored spectrophometrically. […] The inhibition reaction was started by mixing serial diluted test compound with the above reaction mixture. The absorption at 340 nm was monitored continuously for 4 hours at 30° C. on Synergy 2 plate reader (BioTech).

[4] = target: unphosphorylated PDGFRβ kinase (uPDGFRβ, Seq. ID No. 3) (Homo sapiens, UniProt P09619); assay: biochemical; details: for pIC50: uPDGFRb, enzymatic assay, ATP 500 μM
unphosphorylated PDGFRβ kinase (uPDGFRβ, Seq. ID No. 3), sequence (P09619 557-1106): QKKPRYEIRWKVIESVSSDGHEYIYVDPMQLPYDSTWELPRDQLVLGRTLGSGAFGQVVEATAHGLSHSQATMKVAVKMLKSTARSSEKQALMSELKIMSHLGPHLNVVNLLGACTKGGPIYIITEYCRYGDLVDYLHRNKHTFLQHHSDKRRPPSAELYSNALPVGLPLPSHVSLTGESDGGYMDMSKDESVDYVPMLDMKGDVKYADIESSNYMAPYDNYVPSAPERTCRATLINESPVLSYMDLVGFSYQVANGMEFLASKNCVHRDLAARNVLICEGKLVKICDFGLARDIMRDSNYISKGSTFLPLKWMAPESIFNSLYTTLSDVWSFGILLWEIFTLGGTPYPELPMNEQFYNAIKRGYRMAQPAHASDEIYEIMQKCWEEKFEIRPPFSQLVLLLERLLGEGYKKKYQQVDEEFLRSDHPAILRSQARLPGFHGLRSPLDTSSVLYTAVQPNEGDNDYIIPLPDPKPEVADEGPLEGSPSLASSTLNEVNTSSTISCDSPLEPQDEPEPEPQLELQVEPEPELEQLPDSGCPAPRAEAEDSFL

Structure (SMILES)	pIC50 (osteoclast precursors)	pIC50 [1]	pIC50 [2]	pIC50 [3]	pIC50 [4]	IC50 ([3]; IC50 (nM) uKIT, Table 3) [nM]	IC50 ([4]; IC50 (nM) uPDGFRβ, Table 3) [nM]	pIC50 (M-NFS-60 cells)
COC(C)(C)C(=O)NC(=O)Nc1ccc(Oc2ccnc(-c3cnc(C(C)C)[nH]3)c2)cn1 [Example 173, N-((5-((2-(2-isopropyl-1H-imidazol-5-yl)pyridin-4-yl)oxy)pyridin-2-yl)carbamoyl)-2-methoxy-2-methylpropanamide]	7.00 to 8.00	7.00 to 8.00	> 8.00	< 6.00	< 6.00			7.00 to 8.00
COC(C)(C)C(=O)NC(=O)Nc1cc(C)c(Oc2ccnc(-c3cnn(C)c3)c2)c(C)n1 [Example 140, N-((4,6-dimethyl-5-((2-(1-methyl-1H-pyrazol-4-yl)pyridin-4-yl)oxy)pyridin-2-yl)carbamoyl)-2-methoxy-2-methylpropanamide]	7.00 to 8.00	> 8.00	> 8.00	7.00 to 8.00	6.00 to 7.00			> 8.00
CC(C)(C)C(=O)NC(=O)Nc1ccc(Oc2ccnc(-c3cnco3)c2)cn1 [Example 93, N-((5-((2-(oxazol-5-yl)pyridin-4-yl)oxy)pyridin-2-yl)carbamoyl)pivalamide]	> 8.00	7.00 to 8.00	> 8.00	< 6.00	< 6.00			7.00 to 8.00
Cn1cnc(-c2cc(Oc3ccc(NC(=O)NC(=O)C(C)(C)C)nc3)ccn2)c1 [Example 104, N-((5-((2-(1-methyl-1H-imidazol-4-yl)pyridin-4-yl)oxy)pyridin-2-yl)carbamoyl)pivalamide]	> 8.00	> 8.00	> 8.00	< 6.00	< 6.00			> 8.00
Cc1cc(-c2cc(Oc3ccc(NC(=O)NC(=O)C(C)(C)C)nc3C)ccn2)on1 [Example 76, N-((6-methyl-5-((2-(3-methylisoxazol-5-yl)pyridin-4-yl)oxy)pyridin-2-yl)carbamoyl)pivalamide]	7.00 to 8.00		> 8.00	< 6.00	< 6.00			
Cc1cc(NC(=O)NC(=O)C(C)(C)C)ncc1Oc1ccnc(-c2cnn(C)c2)c1 [Example 84, N-((4-methyl-5-((2-(1-methyl-1H-pyrazol-4-yl)pyridin-4-yl)oxy)pyridin-2-yl)carbamoyl)pivalamide]	> 8.00	> 8.00	> 8.00	6.00 to 7.00	6.00 to 7.00			> 8.00
COC(C)(C)C(=O)NC(=O)Nc1cc(C)c(Oc2ccnc(-c3cnn(C)c3)c2)cn1 [Example 91, 2-methoxy-2-methyl-N-((4-methyl-5-((2-(1-methyl-1H-pyrazol-4-yl)pyridin-4-yl)oxy)pyridin-2-yl)carbamoyl)propanamide]	> 8.00	> 8.00	> 8.00	7.00 to 8.00	6.00 to 7.00			> 8.00
Cc1ccc(-c2cc(Oc3ccc(NC(=O)NC(=O)C4CCOCC4)nc3)ccn2)cn1 [Example 103, N-((5-((6′-methyl-[2,3′-bipyridin]-4-yl)oxy)pyridin-2-yl)carbamoyl)tetrahydro-2H-pyran-4-carboxamide]	7.00 to 8.00	7.00 to 8.00	> 8.00	< 6.00	6.00 to 7.00			7.00 to 8.00
Cn1cc(-c2cc(Oc3ccc(NC(=O)NC(=O)C4(C)CC4)nc3)ccn2)cn1 [Example 52, 1-methyl-N-((5-((2-(1-methyl-1H-pyrazol-4-yl)pyridin-4-yl)oxy)pyridin-2-yl)carbamoyl)cyclopropanecarboxamide]	> 8.00		> 8.00	6.00 to 7.00	< 6.00			
Cc1cc(-c2cc(Oc3ccc(NC(=O)NC(=O)C(C)(C)C)nc3C)ccn2)ccn1 [Example 56, N-((6-methyl-5-((2′-methyl-[2,4′-bipyridin]-4-yl)oxy)pyridin-2-yl)carbamoyl)pivalamide]	7.00 to 8.00		> 8.00	< 6.00	< 6.00	3100	2800	
Cn1cc(-c2cc(Oc3ccc(NC(=O)NC(=O)[C@H]4C[C@](C)(F)C4)nc3)ccn2)cn1 [Example 1, trans-3-fluoro-3-methyl-N-((5-((2-(1-methyl-1H-pyrazol-4-yl)pyridin-4-yl)oxy)pyridin-2-yl)carbamoyl)cyclobutanecarboxamide]	> 8.00	> 8.00	> 8.00		7.00 to 8.00			> 8.00
Cn1cc(-c2cc(Oc3ccc(NC(=O)NC(=O)CC(C)(C)C(F)(F)F)nc3)ccn2)cn1 [Example 48, 4,4,4-trifluoro-3,3-dimethyl-N-((5-((2-(1-methyl-1H-pyrazol-4-yl)pyridin-4-yl)oxy)pyridin-2-yl)carbamoyl)butanamide]	7.00 to 8.00	> 8.00	> 8.00	> 8.00				7.00 to 8.00

Second part, led by results:

pIC50 (osteoclast precursors)	pIC50 [1]	pIC50 [2]	pIC50 [3]	pIC50 [4]	IC50 ([3]; IC50 (nM) uKIT, Table 3) [nM]	IC50 ([4]; IC50 (nM) uPDGFRβ, Table 3) [nM]	Structure (SMILES)	pIC50 (M-NFS-60 cells)
> 8.00	> 8.00	> 8.00	< 6.00	< 6.00			CCn1cc(-c2cc(Oc3ccc(NC(=O)NC(=O)C(C)C)nc3C)ccn2)cn1 [Example 61, N-((5-((2-(1-ethyl-1H-pyrazol-4-yl)pyridin-4-yl)oxy)-6-methylpyridin-2-yl)carbamoyl)isobutyramide]	7.00 to 8.00
> 8.00	> 8.00	> 8.00	6.00 to 7.00	6.00 to 7.00			Cc1nc(NC(=O)NC(=O)C2(C)CCC2)ccc1Oc1ccnc(-c2cnn(C)c2)c1 [Example 92, 1-methyl-N-((6-methyl-5-((2-(1-methyl-1H-pyrazol-4-yl)pyridin-4-yl)oxy)pyridin-2-yl)carbamoyl)cyclobutanecarboxamide]	> 8.00
> 8.00	> 8.00	7.00 to 8.00	< 6.00	< 6.00			Cc1ccc(-c2cc(Oc3ccc(NC(=O)NC(=O)C(C)C)nc3C)ccn2)cn1 [Example 71, N-((6-methyl-5-((6′-methyl-[2,3′-bipyridin]-4-yl)oxy)pyridin-2-yl)carbamoyl)isobutyramide]	7.00 to 8.00
7.00 to 8.00	> 8.00	7.00 to 8.00	6.00 to 7.00	6.00 to 7.00			Cc1nc(NC(=O)NC(=O)C(C)(C)C(F)(F)F)ccc1Oc1ccnc(-c2cnn(C)c2)c1 [Example 36, 3,3,3-trifluoro-2,2-dimethyl-N-((6-methyl-5-((2-(1-methyl-1H-pyrazol-4-yl)pyridin-4-yl)oxy)pyridin-2-yl)carbamoyl)propanamide]	7.00 to 8.00
> 8.00	> 8.00	> 8.00	> 8.00	7.00 to 8.00			Cc1nc(NC(=O)NC(=O)C2CC(C)(C)C2)ccc1Oc1ccnc(-c2cnn(C)c2)c1 [Example 13, 3,3-dimethyl-N-((6-methyl-5-((2-(1-methyl-1H-pyrazol-4-yl)pyridin-4-yl)oxy)pyridin-2-yl)carbamoyl)cyclobutanecarboxamide]	> 8.00
> 8.00		> 8.00					Cc1cc(-c2cc(Oc3ccc(NC(=O)NC(=O)C(C)C)nc3C)ccn2)ccn1 [Example 79, N-((6-methyl-5-((2′-methyl-[2,4′-bipyridin]-4-yl)oxy)pyridin-2-yl)carbamoyl)isobutyramide]	
